Test results reported in publication PMC7108845, “An Alphaherpesvirus Exploits Antimicrobial β-Defensins To Initiate Respiratory Tract Infection” (Journal of Virology, 2020).

Key:
[1] = system: EHV1 (isolate 03P37); assay type: cell-based, equine herpesvirus type 1
[2] = system: EHV1 particles binding to RK13 cells; assay type: cell-based, equine herpesvirus type 1
[3] = system: equine polymorphonuclear (PMN) cells; experiment: CytoSelect cell migration (chemotaxis) assay; details: 0 to 10 μg/ml; 96-well Boyden chamber, 5-μm pores; RFU; three donor horses
[4] = system: EIV; assay type: cell-based, equine influenza virus
[5] = system: equine arteritis virus (08P178); assay type: cell-based
[6] = system: equine CD3+ T lymphocytes; experiment: CytoSelect cell migration (chemotaxis) assay; details: 0 to 10 μg/ml; 96-well Boyden chamber, 5-μm pores; RFU; three donor horses
[7] = system: equine influenza virus (A/equine/Kentucky/98, H3N8); assay type: cell-based
[8] = system: Rhodococcus equi (3851); experiment: MIC assay, bacterial growth inhibition; assay type: cell-based; details: Gram-positive; Mueller-Hinton II broth, ~10^6 CFU/ml, 0 to 100 μg/ml eBD, 24 h, 37°C, 5% CO2; lowest concentration with no visible bacterial growth
Protocol: (§1) To ensure that eBD1, -2, and -3 are potent antimicrobial peptides, a MIC test was performed to determine inhibition of the growth of a number of Gram-positive and Gram-negative bacteria found in the equine respiratory tract by eBDs. The examined concentration range of eBDs ([…] to 100 μg/ml) was chosen based on the antimicrobially active concentration range of human BDs ([21][–][25]).
(§2) Clinical bacterial isolates were used in a MIC assay to investigate the sensitivity of bacterial pathogens from the equine respiratory tract to eBDs. The test organisms included the Gram-positive bacteria Streptococcus equi subsp. zooepidemicus (strain 4001), Streptococcus equi subsp. equi (strain 3830), Staphylococcus aureus (strain 3939), and Rhodococcus equi (strain 3851) and the Gram-negative bacteria Actinobacillus equuli subsp. equuli (strain 4005) and Bordetella bronchiseptica (strain 3033). All organisms were grown on Oxoid sheep blood agar plus plates (Thermo Fisher Scientific) overnight in a humidified incubator (5% CO2) at 37°C. Inocula were prepared by swabbing bacterial colonies from the plates, suspending them in PBS (turbidity equivalent to a 0.5 McFarland standard), and diluting this suspension 1:100 in Mueller-Hinton II (MH) broth (BD Biosciences, San Jose, CA, USA), achieving a final concentration of approximately 10^6 CFU/ml. eBDs were serially 2-fold diluted in MH broth at concentrations ranging from 200 μg/ml to 0.02 μg/ml and pipetted into 96-well microtiter plates (Greiner Bio, Kremsmünster, Austria). The inoculum was added to the eBD dilutions 1:1, and the bacteria were incubated in a humidified incubator (5% CO2) at 37°C for 24 h. MIC values were determined as the lowest concentration of eBD at which there was no visible bacterial growth.

[9] = system: Staphylococcus aureus (3939); experiment: MIC assay, bacterial growth inhibition; assay type: cell-based; details: Gram-positive; Mueller-Hinton II broth, ~10^6 CFU/ml, 0 to 100 μg/ml eBD, 24 h, 37°C, 5% CO2; lowest concentration with no visible bacterial growth
Protocol: as §1, §2

[10] = system: Bordetella bronchiseptica (3033); experiment: MIC assay, bacterial growth inhibition; assay type: cell-based; details: Gram-negative; Mueller-Hinton II broth, ~10^6 CFU/ml, 0 to 100 μg/ml eBD, 24 h, 37°C, 5% CO2; lowest concentration with no visible bacterial growth
Protocol: as §1, §2

[11] = system: Streptococcus equi subsp. zooepidemicus (4001); experiment: MIC assay, bacterial growth inhibition; assay type: cell-based; details: Gram-positive; Mueller-Hinton II broth, ~10^6 CFU/ml, 0 to 100 μg/ml eBD, 24 h, 37°C, 5% CO2; lowest concentration with no visible bacterial growth
Protocol: as §1, §2

[12] = system: Streptococcus equi subsp. equi (3830); experiment: MIC assay, bacterial growth inhibition; assay type: cell-based; details: Gram-positive; Mueller-Hinton II broth, ~10^6 CFU/ml, 0 to 100 μg/ml eBD, 24 h, 37°C, 5% CO2; lowest concentration with no visible bacterial growth
Protocol: as §1, §2

[13] = system: Actinobacillus equuli subsp. equuli (4005); experiment: MIC assay, bacterial growth inhibition; assay type: cell-based; details: Gram-negative; Mueller-Hinton II broth, ~10^6 CFU/ml, 0 to 100 μg/ml eBD, 24 h, 37°C, 5% CO2; lowest concentration with no visible bacterial growth
Protocol: as §1, §2

[14] = system: EHV1 particles binding to EREC; assay type: cell-based, equine herpesvirus type 1
[15] = system: equine CD172a+ monocytic cells; experiment: CytoSelect cell migration (chemotaxis) assay; details: 0 to 10 μg/ml, 96-well Boyden chamber
[16] = system: EHV1; assay type: cell-based, equine herpesvirus type 1
[17] = system: EHV1 RacL11 Δgp2; assay type: cell-based, equine herpesvirus type 1
[18] = system: EHV1 RacL11; assay type: cell-based, equine herpesvirus type 1
[19] = system: EHV1 RacL11 ΔgM; assay type: cell-based, equine herpesvirus type 1

| Molecule | percentage of RK13 cells with bound EHV1 particles [2] | concentration of maximal migration of equine PMN cells [3] | EIV entry in EREC [4] | EIV infectivity in EREC [4] | protection of cells from subsequent EAV infection [5] | concentration of maximal migration of equine T lymphocytes [6] | protection of cells from subsequent EIV infection [7] | MIC [8] | MIC [9] | MIC [10] | MIC [11] | MIC [12] | MIC [13] | number of EHV1 particles bound per EHV1-positive EREC [14] | percentage of EREC with bound EHV1 particles [14] | protection of cells from subsequent EHV1 infection [1] | chemotaxis of equine monocytic cells [15] | virus particles bound per positive RK13 cell, relative to eBD1 or control pretreatment [2] | EHV1 infection of EREC [16] | EIV infection of EREC [4] | also measured |
| --- | --- | --- | --- | --- | --- | --- | --- | --- | --- | --- | --- | --- | --- | --- | --- | --- | --- | --- | --- | --- | --- |
| Nc1nc(O)c2ncn(COC(CO)CO)c2n1 [ganciclovir, reference compound] | – | – | – | – | – | – | – | – | – | – | – | – | – | – | – | – | – | – | – | – | formation and spread of EHV1 plaques [1]: almost completely blocked |
| MRAPYFLLLTLCLFCCQMSSGVGYLTGLGHRSDHYICARSGGTCHFSSCPLFTKIEGTCYGGKAKCCL (also: bicyclic or more (positions not given here)) [eBD1, chemically synthesized equine β-defensin, named according to its human homolog] | 0.78% ± 0.76% | 1 ng/mL | no effect on EIV entry | did not alter EIV infectivity | failed to protect | 1 µg/mL | failed to protect | >100 µg/mL | >100 µg/mL | >100 µg/mL | >100 µg/mL | >100 µg/mL | >100 µg/mL | did not significantly differ | 17% ± 6% | failed to protect | failed to induce | – | – | – | – |
| MRIHFLLFALLFLFLMPVPGNGGIINMLQKSYCKIRKGRCALLGCLPKEEQIGSCSVSGRKCCRKKK (also: bicyclic or more (positions not given here)) [eBD3, chemically synthesized equine β-defensin, named according to its human homolog] | 1.26% ± 1.34% | 1 ng/mL | no effect on EIV entry | did not alter EIV infectivity | failed to protect | 1 µg/mL | failed to protect | 25 µg/mL | >100 µg/mL | 100 µg/mL | >100 µg/mL | 100 µg/mL | 25 µg/mL | doubled | 36% ± 8% | failed to protect | – | up to 2 fold | not able to infect EREC more efficiently | diminishing subsequent infection of EREC | EAV infectivity [5]: no effect; formation of EAV plaques in RK13 cells [5]: decreased; EIV infection of MDCK cells [7]: almost completely preventing infection; EIV infectivity [7]: decreased; formation of EIV plaques in MDCK cells [7]: decreased; EHV1 infectivity [1]: no effect; average EHV1 plaque diameter [1]: doubling; increase in EHV1 infection in RK13 cells (number of plaques and plaque diameter) [1]: 3.5 fold; increase in susceptibility of RK13 cells to EHV1 (number of plaques) [1]: 1.5 fold; concentration of maximal migration of equine monocytic cells ([15]; 5-μm pores, RFU, three donor horses, P < 0.05): 1 µg/mL |
| MRILHFLLAFLIVFLLPVPGFTAGIETSFSCSQNGGFCISPKCLPGSKQIGTCILPGSKCCRKK (also: bicyclic or more (positions not given here)) [eBD2, chemically synthesized equine β-defensin, named according to its human homolog] | 0.86% ± 0.97% | – | no effect on EIV entry | did not alter EIV infectivity | failed to protect | 1 µg/mL | failed to protect | >100 µg/mL | >100 µg/mL | 100 µg/mL | >100 µg/mL | >100 µg/mL | 25 µg/mL | did not significantly differ | 17% ± 5% | failed to protect | failed to induce | up to 2 fold | not able to infect EREC more efficiently | diminishing subsequent infection of EREC | infectivity of RacL11 Δgp2 in RK13 cells [17]: increase in infectivity; formation of EAV plaques in RK13 cells [5]: decreased; formation of EIV plaques in MDCK cells [7]: decreased; infectivity of parental RacL11 strain in RK13 cells [18]: enhanced; infectivity of RacL11 ΔgM in RK13 cells [19]: diminished; average EHV1 plaque diameter [1]: doubling; increase in EHV1 infection in RK13 cells (number of plaques and plaque diameter) [1]: 3.5 fold |
| heparin [reference compound] | – | – | – | – | – | – | – | – | – | – | – | – | – | – | – | – | – | – | – | – | EHV1 final plaque diameter in RK13 cells [1]: did not alter; EHV1 plaque formation in RK13 cells [1]: inhibited |
